row,SMILES,melting point [°C]
1,Cc1ncnc(Nc2ccc(C(=O)CCC3CCN(Cc4ccccc4)CC3)cc2)c1C,168 to 170
2,CN1CCC2(CCc3cc4ccccc4n3C2)C1 (configuration not stated),55 to 58
3,O=C(O)CCCCCCC(=NOCc1ccc(OCc2noc(-c3ccccc3)n2)cc1)c1ccccc1,76 to 77
4,CC(C)n1nc(-c2[nH]c(=O)c(N)nc2-c2ccccc2)ccc1=O,> 250
5,O=C(O)c1ccc(OCCc2c(CCNS(=O)(=O)Cc3ccccc3Cl)n(C(c3ccccc3)c3ccccc3)c3ccc(Cl)cc23)cc1F,132 to 135
6,CN(C[PH](=O)O)c1cc(Oc2ccc(C(F)(F)F)cc2Cl)ccc1[N+](=O)[O-],153 to 154
7,CC(C(=O)O)(c1ccc(N2CCOCC2)cc1)c1ccc(N2CCOCC2)cc1,217 to 223
8,COC(=O)c1ccc(C(F)(F)F)nc1S(=O)(=O)NC(=O)Nc1nc(OC)cc(OC)n1,130 to 137
9,O=S(=O)(Nc1cccc(Cl)c1F)c1cc(S(=O)(=O)Nc2cccc(Cl)c2F)c2cc(O)ccc2c1,126 to 128
10,Cc1nc(NC(=O)c2cccc(F)c2)sc1C(=O)NCc1ccccc1,162 to 165
11,Cc1cc(C)cc(Sc2c(C(C)C)nc(CCOC(N)=O)n2C)c1,138 to 140
12,N#CCN(CC#N)CCN(CC#N)CC#N,131 to 132
13,CCOn1cnc2c(N)nc3ccccc3c21,179 to 181
14,O=C(C[C@@H](CCCC1CCCCC1)c1nc(CNC2CCCCC2)no1)NO,127
15,CC1N(C)c2cc3[nH]c(=O)cc(C(F)(F)F)c3cc2C1(C)C (configuration not stated),248 to 249
16,COc1ccc(C=Cc2cc(Br)c(OC)c(OC)c2)cc1O,108 to 109
17,COCc1ncc(C(=O)OC)n1C,74 to 77
18,COc1cc(N)c(Cl)cc1C(=O)NC1CNCCn2c1nc(-c1ccncn1)cc2=O (configuration not stated),277 to 279
19,O=C1c2cc(OCc3ccc4ccccc4n3)ccc2SCC1Cc1ccccc1 (configuration not stated),127 to 130
20,COc1ccc(CNC(=O)[C@@H](NC(=O)[C@H](NCc2cccc3ccccc23)[C@H](O)[C@H](Cc2ccccc2)NC(=O)OC(C)(C)C)C(C)C)c(O)c1,95 to 98
21,O=S(=O)(CC(F)(F)F)c1nc2cc(F)ccc2[nH]1,160 to 162

row,SMILES,melting point [°C]
1,CCCNC(=O)N(Cc1ccccc1)NC(=O)OC(C)(C)C,123 to 124
2,CCOC(=O)c1ncn2c1CN(Cc1ccc(OC)cc1OC)C(=O)c1c(Cl)cccc1-2,129 to 130
3,CCCCOc1ccc(C[C@H](NC(=O)[C@H]2CC[C@H](C(C)C)CC2)C(=O)O)cc1,120 to 121
4,CCOC(=O)CC(=O)c1cc(F)c(OP(=O)(OCC)OCC)nc1Nc1ccc(F)cc1F,127 to 130
5,OC1(Cn2cncn2)CCCC1Cc1ccc(-c2ccccc2)cc1 (configuration not stated),145 to 148
6,O=C(CC1C(=S)Nc2ccccc21)NCc1ccccc1 (configuration not stated),193 to 195
7,Nc1ncc(CN2CC=C(c3ccc(F)cc3)CC2)c(N)n1,265
8,Cn1ncc2c1-c1ccc(Cl)cc1C(c1ccccc1F)=NC2,128 to 130
9,ON1C(c2ccccc2)CC2(CC1c1ccccc1)OCCO2 (configuration not stated),161 to 162
10,O=C(O)C(=O)CC(=O)c1cccn1Cc1cccc(Cl)c1,159 to 161
11,CCCOc1ccc(F)c2c1c(CCN(C)C)cn2CC,49 to 50
12,O=C(CNc1c(C(=O)O)[nH]c2cc(Cl)cc(Cl)c12)c1ccccc1Cc1ccccc1,234 to 235
13,CC1CCCN1CCCN1CCN(CCN2CCCC2C)C1=C(C#N)C#N (configuration not stated),69 to 71
14,O=C1CCC(c2c(-c3ccccc3)nn3ccccc23)=NN1,187 to 189
15,CC(C)(C)n1ncc(OCc2ccc(OCc3ccc(F)cc3)nc2)c(Cl)c1=O,121 to 124
16,CC(=O)N[C@@H](Cc1ccc(-c2cc3ccccc3c3ccccc23)cc1)C(=O)O,128 to 132
17,NN=C(c1cccc(F)c1)c1cccc(F)c1,35 to 36
18,O=Cc1cccn1Cc1ccccc1[N+](=O)[O-],128 to 132
19,Clc1ccc(C(C2=NCCN2)c2nccs2)cc1 (configuration not stated),145 to 147
20,CN(O)C(=O)c1ccc(CCCCc2ccncc2)cc1,148 to 150
21,C1=C(/C=C/c2ccccc2)CCN(Cc2n[nH]c3ccccc23)C1,207 to 209

row,SMILES,melting point [°C]
1,Clc1ccc2c(c1)C(c1ccccc1)=NCc1nnc(CN3CCCCC3)n1-2,202 to 203
2,COc1ccc(Cl)cc1-c1c(S)c(=O)[nH]c2ccc(C(F)(F)F)cc12,239 to 241
3,CCOC(=O)C1C(=O)Nc2ccccc2C1c1ccccc1 (configuration not stated),178 to 180
4,COC(=O)C(C(=O)OC)C(C#Cc1ccccc1)c1ccc(OC)c(OC2CCCC2)c1 (racemic),66 to 67
5,CC(C)N(O)C(=O)Nc1ccc(S(C)=O)cc1 (configuration not stated),136
6,CCCCCCN(C[C@H]1CC[C@H](CN(CCCCCC)C(=O)Nc2ccc(N(C)C)cc2)CC1)C(=O)Nc1ccc(N(C)C)cc1,160 to 163
7,Cc1nc2n(c1CC#N)CCCC2OCc1ccccc1 (configuration not stated),132 to 134
8,NOC(C=CCBr)C(=O)O (configuration not stated),53 to 55
9,NC(CCNc1ccc(C(O)(C(F)(F)F)C(F)(F)F)cc1)c1ccc(F)cc1 (configuration not stated),136 to 137
10,Cc1ccc(C(=O)Nc2c(NC(=O)CN3CCCC3)ccc3c2C(=O)c2ccccc2C3=O)cc1,193 to 194
11,CCCC[C@H](NC(=O)[C@H](CC(C)C)NC(=O)c1ccc(C(F)(F)F)cc1F)C(=O)CSCc1ccco1,102 to 106
12,CC(C)(C)OC(=O)Nc1cccc(C(=O)OCc2ccccc2)c1,151 to 153
13,CCOP(=O)(NCc1cccc(-c2nc(=O)c3ccccc3s2)n1)OCC,135 to 136
14,COc1nc(N)cc2cccnc12,178 to 180
15,O=C(Nc1ccc2nc(CN3CCCCC3)ccc2c1)c1ccc(-c2ccc(F)cc2F)cc1,181 to 182
16,O=c1[nH]c2c(c(=O)[nH]1)N=CCN2CCCCN1CCC(OC(c2ccccc2)c2ccccc2)CC1,157 to 159
17,CCCn1c(=O)c2[nH]c(C3CCC(C(=O)OC)C3)nc2n(CCC)c1=O (configuration not stated),188 to 194
18,CC(=C1SC(=O)NC1=O)c1ccc(OCCOc2c(-c3ccc(F)cc3)n(C)c3ccccc3c2=O)cc1,228 to 230
19,S=C=Nc1c(Br)cccc1Br,63 to 65
20,CC(=O)N(O)C(C)c1ccc(C#Cc2cccs2)cc1 (configuration not stated),128 to 129
21,CC1=NN(c2ccc(Cl)cc2)C(=O)C1C(=O)Nc1ccc(F)cc1 (configuration not stated),109 to 113

# The remaining lines, values ahead:
row,melting point [°C],SMILES
1,174 to 175,CCOC(=O)c1c(CN2CCOCC2)nc2cc3c(cc2c1-c1ccc(OC)c(OC)c1)OCCO3
2,152 to 154,CC1(C)COc2c1cc(C=O)c(O)c2Br
3,218 to 220,CC1(C)CC(NC(=O)Nc2ccccc2)CC(C)(C)N1CC#N
4,156 to 158,CC(=Cc1ccccc1)c1ccc2c(c1)C(C)(C)CCS2(=O)=O
5,89 to 90,CCNC(=O)/C=C/c1cccc(Br)c1
6,> 290,CCOC(=O)c1cnc2cc3c(cc2c1O)OCO3
7,202 to 205,Cc1cc2c(cc1Sc1ccc(C(=O)O)c(Cl)c1)C(C)(C)CCC2(C)C
8,104 to 105,O=S(=O)(Nc1onc(C(F)(F)F)c1Br)c1ccccc1
9,261 to 262,Cc1ccc(-c2csc(-c3ccc(C(=O)O)cc3)n2)cc1C
10,307,"CC(=O)Nc1ccc2c(c1)CC1CC(=O)NN=C21 (single isomer, unassigned; (-))"
11,104 to 105,COC(=O)c1cc(OC(F)F)cnc1C1=NC(C)(C(C)C)C(=O)N1 (configuration not stated)
12,226 to 229,CC1=NNC(=O)N(N=Cc2cccnc2C)C1
13,189 to 191,COc1ccc(N2CCN(c3c(C)c(C)c4c(c3C)C(c3ccc(C)cc3)C(C)(C)O4)CC2)cc1 (configuration not stated)
14,233 to 234,COc1cc2nc(N)nc(-c3ccc(O)c(Br)c3)c2cc1OC
15,197 to 207,COc1cc2c(c(Cl)c1Cl)C(=O)C(C)(c1ccccc1)C2c1ccccc1 (configuration not stated)
16,205 to 211,CC(C)c1nc(CO)n(CC(=O)c2ccccc2)c1Sc1cc(Cl)cc(Cl)c1
17,87 to 90,O=C(O)c1c(F)c(F)c(O)c(Cl)c1F
18,101 to 103,CC1C(=CO)C(=O)c2c(O)cc(OCCCCc3ccccc3)cc2N1C=O (configuration not stated)
19,64 to 65,COc1nc(I)cc(C(O)C(C)(C)C)c1C (configuration not stated)
20,126,C=CCn1[nH]c2cc(OC)ccc2c1=O

row,melting point [°C],SMILES
1,200 to 201,CCc1cccc(C)c1CNc1cc(C(=O)NCCO)cc2c1nc(C)n2C
2,228 to 231,CCCCCc1cc2c(nc(O)n2CC2CCN(C(C)=O)CC2)c(N)n1
3,> 330,Cc1nc2cc3c4c(cccc4c2[nH]1)C(=O)N(O)C3=O
4,153 to 155,O=C1c2ccccc2C(O)(C(F)(F)F)c2ccccc21
5,199 to 201,CN1CCOC(=NO)C1=O
6,120 to 122,CC1(C)Cc2nc(N)sc2C(C)(C)C1
7,148 to 154,N#CCCNC(=O)c1cccc(-c2ccc3c(c2)N(c2ccc(Cl)cc2Cl)CC3)c1
8,47 to 49,COc1cc(SC)ccc1O
9,117 to 118,Cn1c(C(F)(F)F)ccc(-c2cc(CBr)c(Cl)cc2F)c1=O
10,108 to 109,CCOC(=O)c1nn(-c2ccc(OC)cc2)c2c1CCC2
11,121 to 123,CN1c2ccc(Cl)cc2C(c2ccccc2Br)=Nc2cccnc21
12,202 to 204,Cn1nccc1C(=O)c1cc(O)c(O)c(Cl)c1Cl
13,191 to 192,COC(=O)Nc1ccc(Br)cn1
14,158 to 159,Nc1c(Br)cc2c(c1Br)C(C(Cl)(Cl)Cl)OC(C(Cl)(Cl)Cl)O2 (configuration not stated)
15,82 to 84,CCCc1cc(NC(=O)N2CCN(c3cc(OC)cc(OC)c3)CC2)c(OC)nc1C
16,94 to 96,Nc1ncc(Br)cc1Cl
17,122 to 123,CCc1cccc(CSC)c1NC(=O)CC1c2ccccc2Oc2ccccc21
18,70,C[Si](C)(C)CCOCn1ccnc1-c1c(N)n(CC2CC2)c2nc(Cl)ccc2c1=O
19,166,COC(=O)C1c2ccccc2N(C)c2ccc(Cl)cc21 (configuration not stated)

# Source: a melting point compilation (Tetko et al.; mined from patent text by program, amines drawn as free bases though some values may be those of a salt)
